Source: patent publication US9737517B2, “Pharmaceutical use of hexahydro-dibenzo[a,g]quinolizine compounds” (SHANGHAI INSTITUTE OF MATERIA MEDICA, CHINESE ACADEMY OF …, priority 2013, dated 2017)

Legend:
α1A-AR = biological target: T1, α1A-AR (Homo sapiens, UniProt P35348); test: Calcium mobilization (Fluo-4) antagonism of phenylephrine in HEK293 cells expressing α1A-AR/Gα16; format: cell-based; conditions: for IC50: HEK293 α1A-AR/Gα16, calcium mobilization, phenylephrine 30 nM; for α1B/α1A: ratio of cell IC50 values, calcium mobilization
T1 construct: expressed in transfected cells; host or cells: HEK293
T1 sequence (P35348 1-466): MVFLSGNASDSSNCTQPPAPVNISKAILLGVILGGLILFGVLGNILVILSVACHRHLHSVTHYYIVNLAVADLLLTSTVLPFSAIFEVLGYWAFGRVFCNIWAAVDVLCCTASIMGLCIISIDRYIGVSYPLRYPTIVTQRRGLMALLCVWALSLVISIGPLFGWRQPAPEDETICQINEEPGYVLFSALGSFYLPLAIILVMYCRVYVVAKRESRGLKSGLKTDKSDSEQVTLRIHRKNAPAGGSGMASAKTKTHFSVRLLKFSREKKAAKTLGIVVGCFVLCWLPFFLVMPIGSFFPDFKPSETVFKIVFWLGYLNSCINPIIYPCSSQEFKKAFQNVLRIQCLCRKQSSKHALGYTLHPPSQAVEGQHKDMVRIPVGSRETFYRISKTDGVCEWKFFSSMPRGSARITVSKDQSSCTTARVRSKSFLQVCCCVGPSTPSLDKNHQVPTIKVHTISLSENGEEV
Method: (§1) HEK293 cells stably expressing α1A-AR/Gα16, α1B-AR/Gα16, α1D-AR/Gα16 were seeded in a 96-well plate, and cultured for 24 hours. Then the medium was removed and 40 μL Hank's balanced salt solution (HBSS: containing 5.4 mM KCl, 0.3 mM Na2HPO4, 0.4 mM KH2PO4, 4.2 mM NaHCO3, 1.3 mM CaCl2, 0.5 mM MgCl2, 0.6 mM MgSO4, 137 mM NaCl, 5.6 mM D-glucose, and 250 μM sulfinpyrazone, pH 7.4) containing 2 μM Fluo-4 AM was added into each well, and incubated at 37° C. for 45 min. Dye was removed and 50 μL of HBSS containing either test compound or 1% DMSO (negative control) was added. After incubation at room temperature for 10 min, Flex Station 3 microplate reader was used to read the value. At specified time points, 25 μL of agonist (phenylephrine, final concentration 30 nM) was dispensed into the well automatically using the reader and fluorescence intensity change of dye caused by intracellular calcium concentration change was detected at an excitation wavelength of 485 nm and an emission wavelength of 525 nm.
(§2) After incubation with different drugs, the reaction rate of cells to 1-AR agonist phenylephrine was calculated as follows: Reaction rate %=(D−B)/(S−B)*100%;
(§3) The reaction rate of the same drug at different doses was tested using GraphPad Prism software by non-linear regression analysis, and the dose-response curve was obtained and IC50 values was measured. Data were obtained from three separate experiments, and each experiment included three duplicate wells.

α1B-AR = biological target: T2, α1B-AR (Homo sapiens, UniProt P35368); test: Calcium mobilization (Fluo-4) antagonism of phenylephrine in HEK293 cells expressing α1B-AR/Gα16; format: cell-based; conditions: phenylephrine 30 nM
T2 construct: expressed in transfected cells; host or cells: HEK293
T2 sequence (P35368 1-520): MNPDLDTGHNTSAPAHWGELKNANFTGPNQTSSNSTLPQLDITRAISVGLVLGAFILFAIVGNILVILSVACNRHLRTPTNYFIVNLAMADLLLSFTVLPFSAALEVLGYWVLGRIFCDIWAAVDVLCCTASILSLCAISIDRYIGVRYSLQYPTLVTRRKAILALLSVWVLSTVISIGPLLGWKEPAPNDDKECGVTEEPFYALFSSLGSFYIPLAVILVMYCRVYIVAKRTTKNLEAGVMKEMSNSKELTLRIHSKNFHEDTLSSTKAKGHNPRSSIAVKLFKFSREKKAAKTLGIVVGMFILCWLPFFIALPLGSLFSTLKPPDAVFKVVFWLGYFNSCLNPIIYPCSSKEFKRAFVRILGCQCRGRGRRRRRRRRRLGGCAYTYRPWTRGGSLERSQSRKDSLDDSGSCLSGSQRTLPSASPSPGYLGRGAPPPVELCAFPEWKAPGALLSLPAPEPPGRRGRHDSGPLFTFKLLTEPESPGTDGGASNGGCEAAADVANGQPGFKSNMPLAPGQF
Method: as §1, §2, §3

SD rats = test: Phenylephrine-induced intraurethral pressure (IUP) and arterial blood pressure (MBP) elevation in anesthetized rats; format: in vivo; conditions: anesthetized male SD rats; for inhibition of phenylephrine-induced intraurethral pressure (IUP) elevation / inhibition of phenylephrine-induced peripheral arterial blood pressure (MBP) elevation: intraduodenal administration
Source text: Male SD rats (200-450 g) were anesthetized with an i.p. administration of urethane (1.25 g/kg). The urinary bladder, prostate, and urethra were exposed through an abdominal midline and symphysis pubica incision. A catheter was placed into the prostatic urethra through the bladder dome and secured at bladder neck (vesico-urethral junction) with a silk suture. The distal urethra under pubica was closed. The other side of the catheter was connected to a pressure transducer to measure the intraurethral pressure (IUP). After separating the duodenum and cutting open at about 2 cm from the stomach pylorus, intubating and performing purse-string suture, the test sample was supplied. Then, the median carotid incision was performed, carotid artery was separated, and the arterial blood pressure was measured by pressure transducer connected to artery cannula. Be careful not to hurt the nerves and blood vessels throughout the procedure. After surgery, a small amount (0.1˜0.2 mL) of saline was injected to balance the intraurethral pressure at around 10 cm of water. Then an intravenous injection at a concentration of 30 μg/mL of […] 1 mL/kg was performed before administration and 5 min, 30 min, 1 h, 1.5 h, 2 h, 3 h after administration to induce intraurethral pressure elevation. (If the effect was stable or weakened, then the experiment was ended.) The changes of intraurethral pressure and blood pressure induced by phenylephrine in rats were observed and recorded at different time points before and after administration.

BPH Rat model = test: Pharmacodynamic experiment in BPH rat model (testosterone propionate), urination after water load; format: in vivo, SD rats; conditions: BPH model rats; for frequency of urination, single urine output: relation to dose: 3 doses, water load 30 mL/kg
Method: Establishing of BPH Rat model: 6-week-old male SD rats (n=49) (body weight about 200 g), in which 37 rats were BPH model group and daily injected testosterone propionate subcutaneously, and the other 12 rats were Sham group and injected olive oil, for 4 weeks. After 4 weeks, 49 rats received gavage in a dosage of 30 mL/kg of water, and urination for each rat was observed and recorded (recording each urine output and frequency of urination within two hours).
According to the above verification results, rats having abnormal urination were firstly excluded. Then, the normal BPH model rats were divided into 2 groups, 12 rats every group, and 12 rats of Sham group were singled out as control group. Grouping principles were as follows: there were significant differences of body weight, frequency of urination within two hours, single urine output and the total amount of urination between the two groups of BPH model and Sham group, and there were no significant differences between the two groups of BPH model.
Efficacy verification experiment. The experiment had seven groups: Sham group, silodosin group (BPH-1,3-group dose) and DC037009 group (BPH-2,3-group dose). Rats received gavage in a dosage of 5 mL/kg and each dose of the compound dissolved with CMCNa. After 20 min, the rats received gavage in a dosage of 30 mL/kg water. The study time interval of different doses of the same compound was over 24 hours.

[1] = under certain total urine output

## COc1cc2c(cc1OC)CN1CCc3cc4c(cc3[C@@H]1C2)OCO4 [DC037009, S-(−)-2,3-methylenedioxy-10,11-dimethoxy-5,8,13,13a-tetrahydro-6H-dibenzo[a,g]quinolizine]
α1A-AR
  IC50: 29.8 nM
  α1B/α1A: 175
α1B-AR
  IC50: 5210 nM
SD rats; IUP versus MBP
  selectivity to urethra (rank order): DC037009>Silodosin
SD rats
  onset dose compared with silodosin: significantly lower than that of positive drug silodosin
  rank order of inhibition of phenylephrine-induced blood pressure elevation: Silodosin>DC037009
  rank order of inhibition of phenylephrine-induced intraurethral pressure elevation: DC037009>Silodosin
  inhibition of phenylephrine-induced intraurethral pressure (IUP) elevation: dose-dependently inhibit
  inhibition of phenylephrine-induced peripheral arterial blood pressure (MBP) elevation: dose-dependently inhibit
BPH Rat model; gavage
  efficacy compared with positive drug: comparable to the positive drug
  onset dose: 1 mg/kg
  frequency of urination, single urine output: relation to dose: dose-dependent relationship
BPH Rat model; [1]
  frequency of urination: reduce frequency of urination
  single urine output: significantly increase

## COc1cc2c(cc1OCc1ccccc1)C[C@H]1c3cc4c(cc3CCN1C2)OCO4 [DC037016]
α1A-AR
  IC50: 34.8 nM
  α1B/α1A: 122
α1B-AR
  IC50: 4250 nM

## C[C@H](Cc1cc2c(c(C(N)=O)c1)N(CCCO)CC2)NCCOc1ccccc1OCC(F)(F)F [Silodosin, reference compound]
SD rats
  inhibition of phenylephrine-induced intraurethral pressure (IUP) elevation: dose-dependently inhibit
  inhibition of phenylephrine-induced peripheral arterial blood pressure (MBP) elevation: dose-dependently inhibit
BPH Rat model; gavage
  frequency of urination, single urine output: relation to dose: dose-dependent relationship
